Results taken from ChEMBL document CHEMBL1201862, “PubChem BioAssay data set” (2004).
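Briefly, cells in 96-well plates were exposed to five compound concentrations for 48 h, and endpoints were estimated by linear interpolation. GI50 = concentration required for 50% inhibition of growth.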 Calls of active or inactive are those of the source. Rule as the data show it: active = GI50 up to about 1.1 µM and inactive = higher.

Legend:
Assay in all cases: NCI-60 cell line screen, 48 h
[1] = test system: BT-549
[2] = test system: NCI-H522
[3] = test system: HCT-15
[4] = test system: CAKI-1
[5] = test system: SF-295
[6] = test system: NCI-H226
[7] = test system: SW-620
[8] = test system: MDA-MB-435
[9] = test system: NCI/ADR-RES
[10] = test system: SNB-75
[11] = test system: OVCAR-5
[12] = test system: OVCAR-8
[13] = test system: ACHN
[14] = test system: HCT-116
[15] = test system: EKVX
[16] = test system: HOP-92
[17] = test system: PC-3
[18] = test system: MDA-N
[19] = test system: SR

Structure (SMILES)	GI50 [1]	GI50 [2]	GI50 [3] [µM]	GI50 [4]	GI50 [5]	GI50 [6]	GI50 [7]	GI50 [8]	GI50 [9]	GI50 [10]	GI50 [11]	GI50 [12]	GI50 [13]	GI50 [14]	GI50 [15]	GI50 [16]	GI50 [17]	GI50 [18]	GI50 [19]
Fc1ccc(C(OCCN2CC3CCC(C2)N3CCCc2ccccc2)c2ccc(F)cc2)cc1	12.4 µM (inactive)	2.17 µM (inactive)	3.42	6.22 µM (inactive)	3.15 µM (inactive)	3.94 µM (inactive)	3.54 µM (inactive)	2.13 µM (inactive)	3.89 µM (inactive)	3.37 µM (inactive)	10.6 µM (inactive)	2.3 µM (inactive)	10.6 µM (inactive)	2.93 µM (inactive)	4.06 µM (inactive)	8.05 µM (inactive)	2.72 µM (inactive)	3.43 µM (inactive)	–
Cc1ncc([N+](=O)[O-])n1CCNC(=O)CCCCCn1ccnc1[N+](=O)[O-]	> 100 µM (inactive)	> 100 µM (inactive)	> 100	> 100 µM (inactive)	> 100 µM (inactive)	> 100 µM (inactive)	> 100 µM (inactive)	> 100 µM (inactive)	> 100 µM (inactive)	> 100 µM (inactive)	> 100 µM (inactive)	> 100 µM (inactive)	> 100 µM (inactive)	> 100 µM (inactive)	–	–	> 100 µM (inactive)	> 100 µM (inactive)	> 100 µM (inactive)
N=c1sc2ccccc2n1CC[S-].c1ccc2c(c1)sc1[n+]2CCS1	23.1 µM (inactive)	18 µM (inactive)	16.7	16.9 µM (inactive)	17.4 µM (inactive)	16.7 µM (inactive)	17.1 µM (inactive)	15.7 µM (inactive)	20.4 µM (inactive)	41.5 µM (inactive)	20.5 µM (inactive)	17.1 µM (inactive)	16.3 µM (inactive)	16.9 µM (inactive)	22 µM (inactive)	17 µM (inactive)	29.8 µM (inactive)	37.1 µM (inactive)	–
COc1ccc(-c2oc3c(OC)c(OC)cc(O)c3c(=O)c2OC)cc1	> 100 µM (inactive)	54.8 µM (inactive)	> 100	> 100 µM (inactive)	> 100 µM (inactive)	> 100 µM (inactive)	> 100 µM (inactive)	> 100 µM (inactive)	> 100 µM (inactive)	> 10 µM (inactive)	> 100 µM (inactive)	> 100 µM (inactive)	> 100 µM (inactive)	46.5 µM (inactive)	> 100 µM (inactive)	42.8 µM (inactive)	> 10 µM (inactive)	> 100 µM (inactive)	–
O=C(O)Cc1ccc([N+](=O)[O-])cc1[N+](=O)[O-]	> 100 µM (inactive)	> 100 µM (inactive)	> 100	> 100 µM (inactive)	> 100 µM (inactive)	> 100 µM (inactive)	> 100 µM (inactive)	> 100 µM (inactive)	> 100 µM (inactive)	> 100 µM (inactive)	> 100 µM (inactive)	> 100 µM (inactive)	> 100 µM (inactive)	> 100 µM (inactive)	> 100 µM (inactive)	–	> 100 µM (inactive)	> 100 µM (inactive)	–
Cc1nc2ccc(NC3OC(CO)C(O)C(O)C3O)cc2c(=O)n1-c1ccccc1 (stereo not given)	> 100 µM (inactive)	> 100 µM (inactive)	> 100	> 100 µM (inactive)	> 100 µM (inactive)	> 100 µM (inactive)	> 100 µM (inactive)	> 100 µM (inactive)	> 100 µM (inactive)	> 100 µM (inactive)	> 100 µM (inactive)	> 100 µM (inactive)	> 100 µM (inactive)	> 100 µM (inactive)	> 100 µM (inactive)	–	> 100 µM (inactive)	> 100 µM (inactive)	–
S=C1NCCN1C(=S)NC1CCCCC1	21.4 µM (inactive)	22.1 µM (inactive)	29	25.4 µM (inactive)	37.2 µM (inactive)	22.2 µM (inactive)	46 µM (inactive)	26.2 µM (inactive)	29.2 µM (inactive)	19 µM (inactive)	> 100 µM (inactive)	47.6 µM (inactive)	32.7 µM (inactive)	30.3 µM (inactive)	29.1 µM (inactive)	24.8 µM (inactive)	–	36.9 µM (inactive)	35.8 µM (inactive)
CCON1CC(C(=O)OC)=C(O)C1=O	> 100 µM (inactive)	> 100 µM (inactive)	> 100	> 100 µM (inactive)	> 100 µM (inactive)	–	> 100 µM (inactive)	> 100 µM (inactive)	> 100 µM (inactive)	> 100 µM (inactive)	> 100 µM (inactive)	> 100 µM (inactive)	> 100 µM (inactive)	> 100 µM (inactive)	> 100 µM (inactive)	> 100 µM (inactive)	> 100 µM (inactive)	> 100 µM (inactive)	–
